Laboratory results reported in patent US20120122870A1, “Treatment Of Ischemia-Reperfusion Injury” (MUSC FOUNDATION FOR RESEARCH DEVELOPMENT, priority 2009, published 2012).

Key:
[1] = test system: endogenous SK activity in MDA-MB-231 cells; experiment: Cellular S1P production (endogenous SK activity) in MDA-MB-231 cells; type: cell-based; details: for inhibition at 20 µg/mL / IC50: Homo sapiens; for inhibition at 20 µg/mL: MDA-MB-231, MDA-MB-231 cells incubated with 20 μg/mL of compound; for inhibition at 20 µg/mL / Cellular S1P (% inhibition): percentage of S1P production inhibited; for IC50: MDA-MB-231 cells, varying concentrations, concentration inhibiting S1P production by 50%; for Cellular S1P (% inhibition): MDA-MB-231 cells incubated with 20 μg/mL of compound
Method in brief: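 MDA-MB-231 cells treated with 20 μg/mL compound and assayed for endogenous SK activity, reported as % inhibition of S1P production. For IC50, cells received varying compound concentrations and S1P produced was measured; IC50 is the concentration giving 50% inhibition.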

recombinant human SK = target: T1, recombinant human SK (Homo sapiens, UniProt Q9NYA1); experiment: Recombinant human SK activity assay ([3H]sphingosine to [3H]S1P); type: biochemical; details: Human SK incubated with 6 μg/mL of compound; percentage of SK activity inhibited
T1 construct: GST (glutathione-S-transferase) (N); made in house; host or cells: bacteria (pGEX bacterial expression vector)
T1 sequence (Q9NYA1 whole entry): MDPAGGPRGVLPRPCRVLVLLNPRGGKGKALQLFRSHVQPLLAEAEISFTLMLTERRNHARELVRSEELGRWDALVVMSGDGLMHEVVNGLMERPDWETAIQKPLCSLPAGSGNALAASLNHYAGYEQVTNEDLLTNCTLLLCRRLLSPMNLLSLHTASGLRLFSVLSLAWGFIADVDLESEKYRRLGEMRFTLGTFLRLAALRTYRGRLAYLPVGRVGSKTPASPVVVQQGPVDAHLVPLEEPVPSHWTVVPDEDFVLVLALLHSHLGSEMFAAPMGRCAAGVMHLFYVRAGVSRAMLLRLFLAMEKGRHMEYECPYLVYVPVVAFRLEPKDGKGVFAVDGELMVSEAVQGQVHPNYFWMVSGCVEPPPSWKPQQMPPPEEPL

SMILES	IC50 [1]	inhibition at 6 µg/mL (recombinant human SK)	Recombinant SK (% inhibition) (recombinant human SK)	inhibition at 20 µg/mL [1]	Cellular S1P (% inhibition) [1]
Clc1ccc(C23CC4CC(CC(CNCCN5CCOCC5)(C4)C2)C3)cc1 [A87, [3-(4-Chloro-phenyl)-adamantan-1-ylmethyl]-(2-morpholin-4-yl-ethyl)-amine]	64 µM	75%	–	55%	–
CC(NC(=O)Nc1ccc(Cl)c(C(F)(F)F)c1)C12CC3CC(CC(c4ccc(Cl)cc4)(C3)C1)C2 (centres unmarked) [A118, 1-{1-[3-(4-Chloro-phenyl)-adamantan-1-yl]-ethyl}-3-(4-chloro-3-trifluoromethyl-phenyl)-urea]	–	77%	–	5%	–
CCCCCCCCCCCCCCCC(=O)Nc1nc(-c2ccc(Cl)cc2)cs1 [B3, Hexadecanoic acid [4-(4-chloro-phnyl)-thiazol-2-yl]-amide]	–	–	88%	–	34%

More lines, main results first:

IC50 [1]	inhibition at 6 µg/mL (recombinant human SK)	Recombinant SK (% inhibition) (recombinant human SK)	SMILES	inhibition at 20 µg/mL [1]	Cellular S1P (% inhibition) [1]
–	–	37%	CCn1c2ccccc2c2cc(NCC34CC5CC(C3)CC(c3ccc(Cl)cc3)(C5)C4)ccc21 [A89, [3-(4-Chloro-phenyl)-admantan-1-ylmethyl]-(9-ethyl-9H-carbazol-3-yl)-amine]	–	1%
–	26%	–	Clc1ccc(-c2cnc(NCC34CC5CC(C3)CC(c3ccc(Cl)cc3)(C5)C4)s2)cc1 [A90, [3-(4-Chloro-phenyl)-adamantan-1-ylmethyl]-[5-(4-chloro-phenyl)-thiazol-2-yl]-amine]	16%	–
51 µM	33%	–	CCn1c2ccccc2c2cc(NC(C)C34CC5CC(CC(c6ccc(Cl)cc6)(C5)C3)C4)ccc21 (centres unmarked) [A114, {1-[3-(4-Chloro-phenyl)-adamantan-1-yl]-ethyl}-(9-ethyl-9H-carbazol-3-yl)-amine]	46%	–
